The results in this text go back to patent US5753617A, “Peptide inhibitors of cellular adhesion” (Centocor, Inc., priority 1995, dated 1998).

Where a SMILES comes first, the peptide text is derived from it. Bridges are numbered along the chain shown (N, C = ends). [ ]: non-standard residue; d: D form. Dap = NC[C@H](N)C(=O)O

In the first experiment the target is T1, P-selectin (Homo sapiens, UniProt P16109).
T1 construct: P-selectin is isolated from human platelet lysates; from tissue; host or cells: human platelets (outdated platelet packs from a blood bank)
T1 sequence (P16109 42-830): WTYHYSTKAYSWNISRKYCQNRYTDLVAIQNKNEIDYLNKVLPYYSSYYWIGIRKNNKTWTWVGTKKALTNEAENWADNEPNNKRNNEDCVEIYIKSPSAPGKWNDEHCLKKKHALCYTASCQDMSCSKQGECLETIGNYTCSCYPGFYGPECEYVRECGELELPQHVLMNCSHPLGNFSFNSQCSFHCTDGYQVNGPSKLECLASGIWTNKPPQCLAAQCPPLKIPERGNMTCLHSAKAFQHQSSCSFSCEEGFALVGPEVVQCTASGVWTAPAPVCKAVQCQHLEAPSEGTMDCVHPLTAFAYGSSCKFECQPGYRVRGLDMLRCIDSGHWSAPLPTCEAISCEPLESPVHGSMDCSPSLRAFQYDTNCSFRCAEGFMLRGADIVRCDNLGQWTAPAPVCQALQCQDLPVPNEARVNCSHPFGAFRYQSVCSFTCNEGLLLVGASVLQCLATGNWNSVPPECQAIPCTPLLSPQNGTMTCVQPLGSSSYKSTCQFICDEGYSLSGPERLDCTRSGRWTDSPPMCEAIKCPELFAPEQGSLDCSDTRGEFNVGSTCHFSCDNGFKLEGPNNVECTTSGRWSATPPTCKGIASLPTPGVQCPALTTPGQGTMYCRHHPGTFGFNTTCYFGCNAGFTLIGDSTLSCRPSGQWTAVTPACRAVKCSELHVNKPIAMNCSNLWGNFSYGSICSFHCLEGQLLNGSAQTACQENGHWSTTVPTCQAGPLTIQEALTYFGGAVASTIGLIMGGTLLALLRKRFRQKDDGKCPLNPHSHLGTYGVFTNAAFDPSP
Briefly: Inhibition of human neutrophil adhesion to purified P-selectin immobilized on plastic wells. As to conditions: human neutrophils, purified human P-selectin. Type of experiment: cell-based. The text has this: Peptides can be screened for their ability to inhibit adhesion to cells, for example, neutrophil adhesion to purified P-selectin immobilized on plastic wells, using the assay described by Geng, et al., Nature 343, 757-760 (1990). Human neutrophils are isolated from heparinized whole blood by density gradient centrifugation on Mono-Poly resolving media, Flow Laboratories. Neutrophil suspensions are greater than 98% pure and greater than 95% viable by trypan blue exclusion. For adhesion assays, neutrophils are suspended at a concentration of 2×10^6 cells/mL in Hanks' balanced salt solution containing 1.26 mM Ca^2+ and 0.81 mM Mg^2+ (HBSS, Gibco) with […] human serum albumin (HBSS/HSA). Adhesion assays are conducted in triplicate in 96-well microliter plates, Corning, incubated at 4° C. overnight with 50 microliters of various protein solutions. P-selectin is isolated from human platelet lysates by immunoaffinity chromatography on antibody S12-Sepharose™ and ion-exchange chromatography on a Mono-Q™ column (FLPC, Pharmacia Fine Chemicals), as follows. Outdated human platelet packs (100 units) obtained from a blood bank and stored at 4° C. are pooled, adjusted to 5 mM EDTA at pH 7.5, centrifuged at 4,000 rpm for 30 minutes in 1 liter bottles, then washed three times with 1 liter of 0.1M NaCl, 20 mM Tris pH 7.5 (TBS), 5 mM EDTA, 5 mM benzamidine. The pellets are then resuspended in a minimum amount of wash buffer and made 1 mM in DIFP, then frozen in 50 mL screwtop tubes at -80° C. The frozen platelets are thawed and resuspended in 50 mL TBS, 5 mM benzamidine, 5 mM EDTA pH 7.5, […]. The suspension is frozen and thawed two times in a dry ice-acetone bath using a 600 mL lyophilizing flask, then homogenized in a glass/teflon mortar and pestle and made 1 mM in DIFP. The NaCl concentration is adjusted to 0.5M with a stock solution of 4M NaCl. After stirring the suspension at 4° C., it is centrifuged in polycarbonate tubes at 33,000 rpm for 60 minutes at 4° C. The supernatant (0.5M NaCl wash) is removed and saved; this supernatant contains the soluble form of P-selectin. Care is taken not to remove the top part of the pellet with the supernatant. The pellets are then homogenized in extraction buffer (TBS, 5 mM benzamidine, 5 mM EDTA, pH 7.5, 100 μM leupeptin, 2% Triton X-100). After centrifugation at 19,500 rpm for 25 minutes at 4° C., the supernatant is removed. The extraction procedure is repeated with the pellet and the supernatant is combined with the first supernatant. The combined extracts, which contain the membrane form of P-selectin, are adjusted to 0.5M NaCl. The soluble fraction (0.5M NaCl wash) and the membrane extract (also adjusted to 0.5M NaCl) are absorbed with separate pools of the monoclonal antibody S12 (directed to P-selectin) previously couple […]) at 5 mg/mL for 2 hours at 4° C. After letting the resins settle, the supernatants are removed. The S12 Affigel containing bound GMP-140 is then loaded into a column and washed overnight at 4° C. with 400 mL of 0.5M NaCl, 20 mM Tris pH 7.5, 0.01% Lubrol PX. Bound P-selectin is eluted from the S12 Affigel with 100 mL of 80% ethylene glycol, 1 mM MES pH 6.0, 0.01% Lubrol PX. Peak fractions with absorbance at 280 nm are pooled. Eluates are dialyzed against TBS with 0.05% Lubrol, then applied to a Mono Q column (FPLC from Pharmacia). The concentrated protein is step eluted with 2M NaCl, 20 mM Tris pH 7.5 (plus 0.05% Lubrol PX for the membrane fraction). Peak fractions are dialyzed into TBS pH 7.5 (plus 0.05% Lubrol PX for the membrane fraction). P-selectin is plated at 5 micrograms/mL and the control proteins: human serum albumin (Alb), platelet glycoprotein IIb/IIIa (IIb), von Willebrand factor (vWF), fibrinogen (FIB), thrombomodulin (TM), gelatin (GEL) or human serum (HS), are added at 50 micrograms/mL. […]
Turning to `CC(C)[C@H](NC(=O)[C@H](Cc1c[nH]c2ccccc12)NC(=O)[C@@H](NC(=O)[C@H](Cc1c[nH]c2ccccc12)NC(=O)[C@@H]1CNC(=O)C[C@H](NC(=O)[C@H](CCCCN)NC(=O)[C@@H](N)CCCNC(=N)N)C(=O)NCC(=O)NCC(=O)N1)[C@@H](C)O)C(N)=O` [SEQ ID NO:3, Arg-Lys-cyclo(Asp-Gly-Gly-Dap)-Trp-Thr-Trp-Val-NH2] (H-RKDGG[Dap]WTWV-NH2; lactam 3-6), the “biological activity / inhibiting neutrophil adhesion to P-selectin (result in words)” value is “totally inactive”.

Staying with this experiment, now noted: inhibiting the binding of human neutrophils to P-selectin.
What is called IC50 is the concentration that inhibits the measured activity by half. A high value points to weaker potency. Compound `CC(C)[C@@H](NC(=O)[C@@H](Cc1c[nH]c2ccccc12)NC(=O)[C@H](NC(=O)[C@@H](Cc1c[nH]c2ccccc12)NC(=O)[C@H]1CSSC[C@@H](NC(=O)[C@H](CCCCN)NC(=O)[C@H](N)CCCNC(=N)N)C(=O)NCC(=O)N[C@@H](Cc2ccccc2)C(=O)N1)[C@H](C)O)C(N)=O` [(34)] (H-[dR]K[dC]GF[dC][dW][dT][dW][dV]-NH2; disulfide 3-6) came in with an IC50 of 88.5 µM.
On the same count and under the same terms, the same measure for `CC(C)[C@@H](NC(=O)[C@@H](Cc1c[nH]c2ccccc12)NC(=O)[C@H](NC(=O)[C@@H](Cc1c[nH]c2ccccc12)NC(=O)[C@H]1CSC[C@@H](NC(=O)[C@@H](CCCCN)NC(=O)[C@H](N)CCCNC(=N)N)C(=O)NCC(=O)N[C@@H](Cc2ccccc2)C(=O)N1)[C@H](C)O)C(N)=O` [(81)]: 10.6 µM; for `CC[C@@H](C)[C@@H](NC(=O)[C@@H](CCCCN)NC(=O)[C@H](N)CCCNC(=N)N)C(=O)NCC(=O)N[C@@H]1CSSC[C@H](C(=O)N[C@H](Cc2c[nH]c3ccccc23)C(=O)N[C@@H](C(N)=O)C(C)C)NC(=O)[C@@H](Cc2c[nH]c3ccccc23)NC(=O)[C@@H]([C@H](C)CC)NC1=O` [(107)] (H-[dR][dK][dI]G[dC][dI][dW][dC][dW][dV]-NH2; disulfide 5-8): 8 µM; for `CC(C)[C@@H](NC(=O)[C@@H](Cc1c[nH]c2ccccc12)NC(=O)[C@H](NC(=O)[C@H](Cc1c[nH]c2ccccc12)NC(=O)[C@H]1CSSC[C@@H](NC(=O)[C@@H](CCCCN)NC(=O)[C@H](N)CCCNC(=N)N)C(=O)NCC(=O)N[C@@H](Cc2ccccc2)C(=O)N1)[C@H](C)O)C(N)=O` [(99)] (H-[dR][dK][dC]GF[dC]W[dT][dW][dV]-NH2; disulfide 3-6): 3.1 µM.
The same measure, in the same setting: the same measure for `CC(C)[C@@H](NC(=O)[C@@H](CCCCN)NC(=O)[C@H](NC(=O)[C@@H](Cc1c[nH]c2ccccc12)NC(=O)[C@H]1CSSC[C@@H](NC(=O)[C@@H](CCCCN)NC(=O)[C@H](N)CCCNC(=N)N)C(=O)NCC(=O)N[C@@H](Cc2ccccc2)C(=O)N1)[C@H](C)O)C(N)=O` [(62)] (H-[dR][dK][dC]GF[dC][dW][dT][dK][dV]-NH2; disulfide 3-6): 533 µM.
`C[C@H](O)[C@@H](NC(=O)[C@@H](Cc1c[nH]c2ccccc12)NC(=O)[C@H]1CSSC[C@@H](NC(=O)[C@@H](CCCCN)NC(=O)[C@H](N)CCCNC(=N)N)C(=O)NCC(=O)NCC(=O)N1)C(=O)N[C@H](Cc1c[nH]c2ccccc12)C(N)=O` [(8)] (H-[dR][dK][dC]GG[dC][dW][dT][dW]-NH2; disulfide 3-6) displayed an IC50 of 97 µM.
Still for that read-out and setting: the same measure for `CC(C)[C@@H](NC(=O)[C@@H](Cc1c[nH]c2ccccc12)NC(=O)[C@@H](NC(=O)[C@@H](Cc1c[nH]c2ccccc12)NC(=O)[C@H]1CSSC[C@@H](NC(=O)[C@@H](CCCCN)NC(=O)[C@H](N)CCCNC(=N)N)C(=O)NCC(=O)N[C@@H](Cc2ccccc2)C(=O)N1)[C@@H](C)O)C(N)=O` [(98)] (H-[dR][dK][dC]GF[dC][dW]T[dW][dV]-NH2; disulfide 3-6): 28.7 µM; for `CC(C)[C@@H](NC(=O)[C@@H](Cc1c[nH]c2ccccc12)NC(=O)[C@H](NC(=O)[C@@H](Cc1c[nH]c2ccccc12)NC(=O)[C@H]1CSSC[C@@H](NC(=O)[C@@H](CCC(=O)O)NC(=O)[C@H](N)CCCNC(=N)N)C(=O)NCC(=O)N[C@@H](Cc2ccccc2)C(=O)N1)[C@H](C)O)C(N)=O` [(112)] (H-[dR][dE][dC]GF[dC][dW][dT][dW][dV]-NH2; disulfide 3-6): 236 µM.
With `CC(C)[C@@H](NC(=O)[C@@H](Cc1c[nH]c2ccccc12)NC(=O)[C@H](NC(=O)[C@@H](Cc1c[nH]c2ccccc12)NC(=O)[C@H]1CSSC[C@@H](NC(=O)[C@@H](CCCCN)NC(=O)[C@H](N)CCCNC(=N)N)C(=O)N2CCC[C@@H]2C(=O)NCC(=O)N1)[C@H](C)O)C(N)=O` [(15)] (H-[dR][dK][dC][dP]G[dC][dW][dT][dW][dV]-NH2; disulfide 3-6), the IC50 was determined as 485 µM.
For `CC(C)[C@@H](NC(=O)[C@H](Cc1c[nH]c2ccccc12)NC(=O)[C@H](NC(=O)[C@@H](Cc1c[nH]c2ccccc12)NC(=O)[C@H]1CSSC[C@@H](NC(=O)[C@@H](CCCCN)NC(=O)[C@H](N)CCCNC(=N)N)C(=O)NCC(=O)N[C@@H](Cc2ccccc2)C(=O)N1)[C@H](C)O)C(N)=O` [(96)] (H-[dR][dK][dC]GF[dC][dW][dT]W[dV]-NH2; disulfide 3-6), the IC50 was 26.7 µM.
`CC(C)[C@@H](NC(=O)[C@@H](Cc1c[nH]c2ccccc12)NC(=O)[C@H](NC(=O)[C@@H](CCCCN)NC(=O)[C@H]1CSSC[C@@H](NC(=O)[C@@H](CCCCN)NC(=O)[C@H](N)CCCNC(=N)N)C(=O)NCC(=O)N[C@@H](Cc2ccccc2)C(=O)N1)[C@H](C)O)C(N)=O` [(56)] (H-[dR][dK][dC]GF[dC][dK][dT][dW][dV]-NH2; disulfide 3-6) gave an IC50 of 727 µM.

Still in this experiment, the particulars now being: stated in text as 'active at'.
In the case of `CC(C)[C@H](NC(=O)[C@H](Cc1c[nH]c2ccccc12)NC(=O)[C@@H](NC(=O)[C@H](Cc1c[nH]c2ccccc12)NC(=O)[C@@H]1CC(=O)NC[C@H](NC(=O)[C@H](CCCCN)NC(=O)[C@@H](N)CCCNC(=N)N)C(=O)NCC(=O)NCC(=O)N1)[C@@H](C)O)C(N)=O` [Preferred peptide (22), Arginyl-lysyl-cyclo(diaminopropionyl-glycyl-glycyl-aspartyl)-tryptophyl-threonyl-tryptophyl-valine-amide] (H-RK[Dap]GGDWTWV-NH2; lactam 3-6), the “concentration at which active in inhibiting neutrophil adhesion to P-selectin” value worked out at 13 mM.
